From ChEMBL document CHEMBL1201862, “PubChem BioAssay data set” (2004)
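96-well plates; 48 h exposure; 5 concentrations. Endpoints by linear interpolation between flanking doses. Not reached: highest tested concentration assigned. Here, GI50 denotes the concentration required for 50% inhibition of growth.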 Active and inactive are the calls of the source. Rule as the data show it: active = GI50 up to about 1.1 µM and inactive = higher.

Tests used:
Experiment in all cases: NCI anticancer screen, dose series, 48 h
[1] = tested on: OVCAR-3
[2] = tested on: LOX IMVI
[3] = tested on: RXF 393
[4] = tested on: SR
[5] = tested on: SN12C
[6] = tested on: UO-31
[7] = tested on: HCT-15
[8] = tested on: SF-268
[9] = tested on: PC-3
[10] = tested on: UACC-62
[11] = tested on: 786-0
[12] = tested on: HT-29
[13] = tested on: SK-OV-3
[14] = tested on: SNB-19
[15] = tested on: HOP-92
[16] = tested on: EKVX
[17] = tested on: HL-60
[18] = tested on: MCF7
[19] = tested on: NCI-H460
[20] = tested on: CAKI-1

For `Cc1cccc2c1CC1(Cc3ccccc3C1=O)C2=O` (centres undefined), the GI50 [1] was > 100 µM (inactive), the GI50 [2] was > 100 µM (inactive) and the GI50 [3] was > 100 µM (inactive). For the same compound, the GI50 [4] was > 100 µM (inactive), the GI50 [5] was > 100 µM (inactive) and the GI50 [6] was > 100 µM (inactive). The GI50 [7] was greater than 100 µM, the GI50 [8] was 87.1 µM (inactive) and the GI50 [9] was > 100 µM (inactive). For the same compound, the GI50 [10] was 75.7 µM (inactive), the GI50 [11] was > 100 µM (inactive) and the GI50 [12] was > 100 µM (inactive). For the same compound, the GI50 [13] was 37.6 µM (inactive), the GI50 [14] was > 100 µM (inactive) and the GI50 [15] was 76.9 µM (inactive). The GI50 [16] was > 100 µM (inactive), the GI50 [17] was > 100 µM (inactive) and the GI50 [18] was > 100 µM (inactive). The GI50 [19] was > 100 µM (inactive).
In the case of `OC(c1cccs1)c1cc2ccccc2s1` (centres undefined), the GI50 [1] is reported as > 10 µM (inactive), the GI50 [2] is reported as > 10 µM (inactive) and the GI50 [3] is reported as > 10 µM (inactive). The GI50 [4] was > 10 µM (inactive), the GI50 [5] was > 10 µM (inactive) and the GI50 [6] was > 10 µM (inactive). For the same compound, the GI50 [7] was greater than 10 µM, the GI50 [8] was > 10 µM (inactive) and the GI50 [9] was > 10 µM (inactive). For the same compound, the GI50 [10] was > 10 µM (inactive), the GI50 [11] was > 10 µM (inactive) and the GI50 [20] was > 10 µM (inactive). For the same compound, the GI50 [12] was > 10 µM (inactive), the GI50 [13] was > 10 µM (inactive) and the GI50 [14] was > 10 µM (inactive). For the same compound, the GI50 [15] was > 10 µM (inactive), the GI50 [16] was > 10 µM (inactive) and the GI50 [17] was > 10 µM (inactive). The GI50 [18] was > 10 µM (inactive) and the GI50 [19] was > 10 µM (inactive).
For `O=C1C[C@@H](c2ccccc2)NCCCCN(O)CCCN1`, the GI50 [1] was > 100 µM (inactive), the GI50 [2] was > 100 µM (inactive) and the GI50 [3] was > 100 µM (inactive). For the same compound, the GI50 [4] was > 10 µM (inactive), the GI50 [5] was > 100 µM (inactive) and the GI50 [6] was > 100 µM (inactive). For the same compound, the GI50 [7] was greater than 100 µM, the GI50 [8] was > 100 µM (inactive) and the GI50 [9] was > 100 µM (inactive). The GI50 [10] was > 100 µM (inactive), the GI50 [11] was > 100 µM (inactive) and the GI50 [20] was > 100 µM (inactive). For the same compound, the GI50 [12] was > 100 µM (inactive), the GI50 [13] was > 100 µM (inactive) and the GI50 [14] was 28.4 µM (inactive). For the same compound, the GI50 [15] was > 100 µM (inactive), the GI50 [16] was > 100 µM (inactive) and the GI50 [17] was > 100 µM (inactive). The GI50 [18] was > 100 µM (inactive).
`CC(=O)Oc1cc(OC(C)=O)c2c(c1C)CC[C@@H]1[C@@H]2CC[C@]2(C)[C@@H](OC(C)=O)CC[C@@H]12` was tested, and the GI50 [1] was 17.3 µM (inactive), the GI50 [2] was 18.4 µM (inactive) and the GI50 [3] was 13.1 µM (inactive). For the same compound, the GI50 [4] was 16.8 µM (inactive), the GI50 [5] was 17.5 µM (inactive) and the GI50 [6] was 17.5 µM (inactive). For the same compound, the GI50 [7] was 17.3 µM, the GI50 [8] was 20.3 µM (inactive) and the GI50 [9] was 15.6 µM (inactive). For the same compound, the GI50 [10] was 18.7 µM (inactive), the GI50 [11] was 19.8 µM (inactive) and the GI50 [20] was 24.5 µM (inactive). The GI50 [12] was 15.8 µM (inactive), the GI50 [14] was 18.6 µM (inactive) and the GI50 [15] was 20.4 µM (inactive). The GI50 [16] was 14.8 µM (inactive), the GI50 [17] was 19.1 µM (inactive) and the GI50 [18] was 19.3 µM (inactive). For the same compound, the GI50 [19] was 19.3 µM (inactive).
In the case of `CCCC(O)c1cn(C(NC(=O)c2ccccc2)P(=O)(OCC)OCC)nn1` (centres undefined), the GI50 [1] is reported as > 100 µM (inactive), the GI50 [2] is reported as > 100 µM (inactive) and the GI50 [3] is reported as > 100 µM (inactive). The GI50 [4] was > 100 µM (inactive), the GI50 [5] was > 100 µM (inactive) and the GI50 [6] was > 100 µM (inactive). For the same compound, the GI50 [7] was greater than 100 µM, the GI50 [8] was > 100 µM (inactive) and the GI50 [9] was > 100 µM (inactive). For the same compound, the GI50 [10] was 39.4 µM (inactive), the GI50 [11] was > 100 µM (inactive) and the GI50 [20] was > 100 µM (inactive). The GI50 [12] was > 100 µM (inactive), the GI50 [14] was > 100 µM (inactive) and the GI50 [15] was > 100 µM (inactive). The GI50 [16] was > 100 µM (inactive), the GI50 [17] was > 100 µM (inactive) and the GI50 [18] was > 100 µM (inactive). The GI50 [19] was > 100 µM (inactive).
With `COc1ccc([C@H](NC(=O)c2ccccc2)[C@@H](O)C(=O)O[C@H]2C[C@@]3(O)C(OC(=O)c4ccccc4)C4[C@](C)(C(=O)[C@H](OC(C)=O)C(=C2C)C3(C)C)[C@@H](O)C[C@H]2OC[C@@]42OC(C)=O)cc1` (some centres undefined) the GI50 [2] was 0.0012 µM (active), the GI50 [3] was 0.0412 µM (active) and the GI50 [4] was 0.00182 µM (active). For the same compound, the GI50 [5] was 0.00284 µM (active), the GI50 [6] was 0.126 µM (active) and the GI50 [7] was 0.366 µM. The GI50 [8] was 0.00415 µM (active), the GI50 [9] was 0.00255 µM (active) and the GI50 [10] was 0.00136 µM (active). The GI50 [11] was 0.0389 µM (active), the GI50 [20] was 0.249 µM (active) and the GI50 [12] was < 0.001 µM (active). For the same compound, the GI50 [13] was 0.00117 µM (active), the GI50 [14] was 0.0368 µM (active) and the GI50 [15] was 0.0586 µM (active). The GI50 [16] was 0.22 µM (active), the GI50 [17] was < 0.001 µM (active) and the GI50 [18] was < 0.001 µM (active). The GI50 [19] was 0.00931 µM (active).
For `COc1cc(C2c3cc4c(cc3[C@H](NC(=O)c3cccs3)C3COC(=O)[C@H]23)OCO4)cc(OC)c1OC` (some centres undefined), the GI50 [1] was 0.0361 µM (active), the GI50 [2] was < 0.0107 µM (active) and the GI50 [3] was 0.0133 µM (active). For the same compound, the GI50 [4] was 0.0122 µM (active), the GI50 [5] was < 0.0187 µM (active) and the GI50 [6] was 0.0811 µM (active). For the same compound, the GI50 [7] was less than 0.0214 µM, the GI50 [8] was < 0.0195 µM (active) and the GI50 [9] was < 0.01 µM (active). The GI50 [10] was < 0.0128 µM (active), the GI50 [11] was < 0.0221 µM (active) and the GI50 [12] was 0.012 µM (active). For the same compound, the GI50 [13] was 0.027 µM (active), the GI50 [14] was < 0.018 µM (active) and the GI50 [15] was 0.0198 µM (active). For the same compound, the GI50 [16] was 0.0731 µM (active), the GI50 [17] was < 0.01 µM (active) and the GI50 [18] was < 0.01 µM (active). The GI50 [19] was 0.0172 µM (active).
